Key:
[1] = target: T1, 5-hydroxytryptamine receptor 2C (Homo sapiens, UniProt P28335); test: (§1) Compound was tested for its affinity towards 5-hydroxytryptamine 1C receptor
T1 sequence (P28335 whole entry): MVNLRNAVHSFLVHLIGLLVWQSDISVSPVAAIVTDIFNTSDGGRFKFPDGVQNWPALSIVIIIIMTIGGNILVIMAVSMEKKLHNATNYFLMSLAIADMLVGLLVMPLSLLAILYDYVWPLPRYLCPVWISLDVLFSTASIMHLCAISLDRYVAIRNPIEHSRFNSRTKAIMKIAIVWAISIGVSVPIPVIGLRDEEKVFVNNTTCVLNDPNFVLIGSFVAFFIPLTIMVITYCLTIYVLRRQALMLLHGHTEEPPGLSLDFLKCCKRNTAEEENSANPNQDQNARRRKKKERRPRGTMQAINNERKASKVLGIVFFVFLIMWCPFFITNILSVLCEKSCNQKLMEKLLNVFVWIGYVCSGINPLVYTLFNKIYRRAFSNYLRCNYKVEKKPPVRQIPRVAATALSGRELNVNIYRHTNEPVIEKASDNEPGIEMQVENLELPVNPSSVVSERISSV

[2] = target: Serotonin 2 (5-HT2) receptor (Homo sapiens, UniProt P41595+P28223+P28335); test: Compound was tested for its affinity towards 5-hydroxytryptamine 2 receptor; assay type: protein assay
[3] = target: T2, 5-hydroxytryptamine receptor 3A (Homo sapiens, UniProt P46098); test: (§2) Compound was tested for its affinity towards 5-hydroxytryptamine 3 receptor
T2 sequence (P46098 whole entry): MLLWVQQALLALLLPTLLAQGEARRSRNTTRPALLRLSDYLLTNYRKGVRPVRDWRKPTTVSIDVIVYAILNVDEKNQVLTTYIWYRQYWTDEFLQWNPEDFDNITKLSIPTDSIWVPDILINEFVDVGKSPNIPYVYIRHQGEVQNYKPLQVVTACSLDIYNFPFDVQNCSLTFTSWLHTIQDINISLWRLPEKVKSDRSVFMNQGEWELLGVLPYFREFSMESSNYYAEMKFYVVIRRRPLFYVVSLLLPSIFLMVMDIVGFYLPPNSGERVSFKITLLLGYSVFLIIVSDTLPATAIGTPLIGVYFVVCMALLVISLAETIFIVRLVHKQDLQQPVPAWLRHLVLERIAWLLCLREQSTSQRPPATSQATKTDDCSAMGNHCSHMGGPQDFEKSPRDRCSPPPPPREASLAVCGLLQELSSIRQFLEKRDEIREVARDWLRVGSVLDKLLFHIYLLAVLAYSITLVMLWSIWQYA

[4] = target: T3, Adrenergic receptor alpha-1 (Homo sapiens, UniProt P35348+P25100+P35368); test: Compound was tested for its affinity towards Alpha-1 adrenergic receptor; assay type: protein assay
T3 sequence (P35348 whole entry): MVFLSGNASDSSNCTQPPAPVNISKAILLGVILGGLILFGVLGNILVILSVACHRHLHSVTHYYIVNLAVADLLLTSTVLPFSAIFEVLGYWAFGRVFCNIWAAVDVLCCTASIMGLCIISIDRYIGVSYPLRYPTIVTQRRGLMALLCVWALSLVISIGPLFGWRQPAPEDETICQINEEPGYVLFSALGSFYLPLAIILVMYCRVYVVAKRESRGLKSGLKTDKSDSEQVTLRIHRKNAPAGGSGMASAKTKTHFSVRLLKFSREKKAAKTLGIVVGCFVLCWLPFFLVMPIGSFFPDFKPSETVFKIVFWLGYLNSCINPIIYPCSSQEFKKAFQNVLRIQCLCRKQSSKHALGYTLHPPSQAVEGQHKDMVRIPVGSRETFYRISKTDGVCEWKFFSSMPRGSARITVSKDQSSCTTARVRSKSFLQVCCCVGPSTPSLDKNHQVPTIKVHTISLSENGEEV
T3 sequence (P25100 whole entry): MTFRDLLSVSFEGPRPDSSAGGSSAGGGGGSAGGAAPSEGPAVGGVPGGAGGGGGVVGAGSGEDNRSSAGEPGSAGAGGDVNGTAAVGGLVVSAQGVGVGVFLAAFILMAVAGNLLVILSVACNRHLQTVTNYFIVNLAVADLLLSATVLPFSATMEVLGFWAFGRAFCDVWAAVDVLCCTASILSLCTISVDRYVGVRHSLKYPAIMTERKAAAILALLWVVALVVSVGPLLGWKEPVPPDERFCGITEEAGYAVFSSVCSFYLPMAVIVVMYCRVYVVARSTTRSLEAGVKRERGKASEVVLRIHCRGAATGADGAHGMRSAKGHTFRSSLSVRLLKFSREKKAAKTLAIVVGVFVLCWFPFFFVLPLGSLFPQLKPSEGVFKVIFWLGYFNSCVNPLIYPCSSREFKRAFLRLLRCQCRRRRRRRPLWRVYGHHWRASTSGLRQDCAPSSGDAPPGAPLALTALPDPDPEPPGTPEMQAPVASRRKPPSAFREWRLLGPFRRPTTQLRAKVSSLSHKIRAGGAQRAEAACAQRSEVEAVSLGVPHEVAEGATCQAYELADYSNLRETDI
T3 sequence (P35368 whole entry): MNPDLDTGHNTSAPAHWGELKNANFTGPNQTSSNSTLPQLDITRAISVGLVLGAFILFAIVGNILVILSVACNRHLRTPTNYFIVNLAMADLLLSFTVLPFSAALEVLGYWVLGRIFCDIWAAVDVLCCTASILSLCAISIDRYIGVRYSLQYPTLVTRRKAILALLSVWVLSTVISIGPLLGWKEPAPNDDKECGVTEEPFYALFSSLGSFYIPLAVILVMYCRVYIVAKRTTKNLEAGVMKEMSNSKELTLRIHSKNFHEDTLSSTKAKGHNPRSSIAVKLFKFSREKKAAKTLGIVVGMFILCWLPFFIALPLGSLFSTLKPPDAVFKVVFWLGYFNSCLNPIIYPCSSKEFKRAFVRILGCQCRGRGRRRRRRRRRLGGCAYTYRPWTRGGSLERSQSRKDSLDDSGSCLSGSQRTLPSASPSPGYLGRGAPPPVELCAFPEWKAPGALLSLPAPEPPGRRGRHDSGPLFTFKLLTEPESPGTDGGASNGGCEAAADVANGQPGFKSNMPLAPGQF

D(2) dopamine receptor = D(2) dopamine receptor (Homo sapiens, UniProt P14416); test: Compound was tested for its affinity towards dopaminergic (D2) receptor
Histamine H1 receptor = Histamine H1 receptor (Homo sapiens, UniProt P35367); test: Compound was tested for its affinity towards histaminergic (H 1) receptor
[5] = target: T4, Muscarinic acetylcholine receptor M4 (Homo sapiens, UniProt P08173); test: Compound was tested for its affinity towards muscarinic (M) receptor
T4 sequence (P08173 whole entry): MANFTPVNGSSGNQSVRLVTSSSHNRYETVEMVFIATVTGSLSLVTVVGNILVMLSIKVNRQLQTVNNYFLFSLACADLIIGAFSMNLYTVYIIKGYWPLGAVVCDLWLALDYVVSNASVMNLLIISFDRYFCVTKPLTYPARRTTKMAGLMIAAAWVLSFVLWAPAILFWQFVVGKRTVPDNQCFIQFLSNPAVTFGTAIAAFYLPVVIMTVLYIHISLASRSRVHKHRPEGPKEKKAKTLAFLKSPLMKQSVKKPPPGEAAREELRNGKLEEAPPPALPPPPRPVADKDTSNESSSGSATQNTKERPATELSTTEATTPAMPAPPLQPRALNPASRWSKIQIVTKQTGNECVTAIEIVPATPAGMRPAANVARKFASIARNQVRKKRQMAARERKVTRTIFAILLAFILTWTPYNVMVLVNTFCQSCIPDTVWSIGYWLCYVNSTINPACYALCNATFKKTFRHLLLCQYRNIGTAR

[6] = target: T5, 5-hydroxytryptamine receptor 4 (Homo sapiens, UniProt Q13639); test: Compound was tested for its affinity towards 5-hydroxy tryptamine 4 receptor
Oryctolagus cuniculus = organism: Oryctolagus cuniculus; test: Compound was tested for its ability to contract rabbit saphenous vein; assay type: functional
[7] = target: T6, 5-hydroxytryptamine receptor 1A (Homo sapiens, UniProt P08908); test: Compound was tested for its ability to inhibit forskolin-stimulated activity of adenylate cyclase coupled to human 5-hydroxytryptamine 1A receptor in HeLa cells; value ranges from 95-320; assay type: functional, cell-based
T6 sequence (P08908 whole entry): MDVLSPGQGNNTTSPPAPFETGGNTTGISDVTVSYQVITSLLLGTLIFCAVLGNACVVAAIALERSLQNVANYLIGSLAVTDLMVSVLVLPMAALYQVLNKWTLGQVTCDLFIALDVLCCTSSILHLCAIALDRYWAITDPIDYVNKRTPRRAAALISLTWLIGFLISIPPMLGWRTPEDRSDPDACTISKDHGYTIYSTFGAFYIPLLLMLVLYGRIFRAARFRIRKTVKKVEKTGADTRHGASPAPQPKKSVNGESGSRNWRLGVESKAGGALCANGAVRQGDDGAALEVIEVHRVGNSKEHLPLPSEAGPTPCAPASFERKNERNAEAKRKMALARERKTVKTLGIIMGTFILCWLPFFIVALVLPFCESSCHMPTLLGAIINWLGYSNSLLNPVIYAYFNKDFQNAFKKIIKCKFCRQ

[8] = target: T6, 5-hydroxytryptamine receptor 1A; test: Binding affinity towards cloned human 5-hydroxytryptamine 1A receptor was determined
[9] = target: T7, 5-hydroxytryptamine receptor 2C (Rattus norvegicus, UniProt P08909); test: as §1
T7 sequence (P08909 whole entry): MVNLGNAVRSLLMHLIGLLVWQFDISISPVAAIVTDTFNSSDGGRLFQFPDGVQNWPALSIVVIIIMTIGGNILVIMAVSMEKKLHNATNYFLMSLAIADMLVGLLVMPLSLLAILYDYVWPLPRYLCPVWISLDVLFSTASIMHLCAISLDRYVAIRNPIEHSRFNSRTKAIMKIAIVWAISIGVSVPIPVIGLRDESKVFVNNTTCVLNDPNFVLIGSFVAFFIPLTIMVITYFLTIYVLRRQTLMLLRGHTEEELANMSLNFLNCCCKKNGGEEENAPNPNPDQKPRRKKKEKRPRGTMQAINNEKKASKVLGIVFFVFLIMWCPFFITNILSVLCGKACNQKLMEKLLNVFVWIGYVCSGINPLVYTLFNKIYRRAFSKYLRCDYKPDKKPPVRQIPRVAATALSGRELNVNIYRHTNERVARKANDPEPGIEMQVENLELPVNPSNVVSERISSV

[10] = target: 5-hydroxytryptamine receptor 1D (Homo sapiens, UniProt P28221); test: Binding affinity towards cloned human 5-hydroxytryptamine 1D receptor alpha was determined
[11] = target: Serotonin 3 (5-HT3) receptor; test: as §2; assay type: protein-complex assay
[12] = target: T5, 5-hydroxytryptamine receptor 4; test: Compound was tested for its affinity towards 5-hydroxytryptamine 4 receptor
[13] = target: T6, 5-hydroxytryptamine receptor 1A; test: Compound was tested for its ability to inhibit forskolin-stimulated activity of adenylate cyclase coupled to human 5-HT 1A receptor in HeLa cells; value ranges from 85-370; assay type: functional, cell-based
[14] = target: 5-hydroxytryptamine receptor 1D (Cavia porcellus, UniProt Q60484); test: Binding affinity towards guinea pig 5-hydroxytryptamine 1D receptor was determined
Chain of 5-hydroxytryptamine receptor 1D (Cavia porcellus, UniProt Q60484) (Q60484 whole entry): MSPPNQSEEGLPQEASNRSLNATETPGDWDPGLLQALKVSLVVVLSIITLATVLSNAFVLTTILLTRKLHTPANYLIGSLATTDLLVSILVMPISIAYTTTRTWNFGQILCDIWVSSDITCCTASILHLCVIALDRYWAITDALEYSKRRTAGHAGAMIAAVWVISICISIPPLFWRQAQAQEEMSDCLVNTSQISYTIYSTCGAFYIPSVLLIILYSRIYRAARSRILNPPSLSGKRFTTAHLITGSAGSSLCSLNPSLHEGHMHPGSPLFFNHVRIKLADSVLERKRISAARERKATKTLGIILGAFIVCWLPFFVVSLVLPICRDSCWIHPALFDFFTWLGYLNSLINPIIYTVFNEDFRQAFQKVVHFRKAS

Chain of 5-hydroxytryptamine receptor 1D (Homo sapiens, UniProt P28221) (P28221 whole entry): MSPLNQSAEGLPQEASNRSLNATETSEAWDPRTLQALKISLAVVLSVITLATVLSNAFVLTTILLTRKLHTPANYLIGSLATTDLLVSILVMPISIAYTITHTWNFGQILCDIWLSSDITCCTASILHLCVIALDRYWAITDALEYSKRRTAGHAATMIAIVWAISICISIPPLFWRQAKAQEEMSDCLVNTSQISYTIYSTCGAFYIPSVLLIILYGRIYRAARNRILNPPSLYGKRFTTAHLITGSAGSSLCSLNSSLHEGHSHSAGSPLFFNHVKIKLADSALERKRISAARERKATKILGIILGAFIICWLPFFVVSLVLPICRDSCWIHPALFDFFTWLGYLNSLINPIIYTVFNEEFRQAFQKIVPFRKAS
T5 sequence (Q13639 whole entry): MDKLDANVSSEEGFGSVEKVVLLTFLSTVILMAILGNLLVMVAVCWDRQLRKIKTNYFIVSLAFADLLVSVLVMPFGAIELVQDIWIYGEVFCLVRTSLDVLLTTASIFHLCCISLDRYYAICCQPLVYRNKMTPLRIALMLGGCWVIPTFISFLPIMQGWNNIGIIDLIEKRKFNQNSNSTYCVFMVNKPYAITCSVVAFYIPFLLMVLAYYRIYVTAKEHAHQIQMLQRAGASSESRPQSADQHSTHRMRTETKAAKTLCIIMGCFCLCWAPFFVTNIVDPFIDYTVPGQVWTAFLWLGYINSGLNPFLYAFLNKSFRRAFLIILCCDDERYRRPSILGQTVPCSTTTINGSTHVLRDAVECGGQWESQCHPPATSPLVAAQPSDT
Chain of Histamine H1 receptor (P35367 whole entry): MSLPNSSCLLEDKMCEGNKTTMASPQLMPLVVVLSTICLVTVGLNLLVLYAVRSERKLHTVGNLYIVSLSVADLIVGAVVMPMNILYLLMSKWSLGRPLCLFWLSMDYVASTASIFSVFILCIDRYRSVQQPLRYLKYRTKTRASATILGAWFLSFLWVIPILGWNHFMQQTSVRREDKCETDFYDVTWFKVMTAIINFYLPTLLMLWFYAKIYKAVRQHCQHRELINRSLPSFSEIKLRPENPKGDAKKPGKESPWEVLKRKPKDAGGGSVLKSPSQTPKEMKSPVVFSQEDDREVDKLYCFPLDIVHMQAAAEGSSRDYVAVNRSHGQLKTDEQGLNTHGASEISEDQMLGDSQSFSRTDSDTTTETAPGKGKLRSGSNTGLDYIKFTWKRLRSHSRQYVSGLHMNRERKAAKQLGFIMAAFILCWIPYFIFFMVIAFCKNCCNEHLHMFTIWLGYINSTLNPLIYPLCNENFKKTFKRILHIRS
Chain of D(2) dopamine receptor (P14416 whole entry): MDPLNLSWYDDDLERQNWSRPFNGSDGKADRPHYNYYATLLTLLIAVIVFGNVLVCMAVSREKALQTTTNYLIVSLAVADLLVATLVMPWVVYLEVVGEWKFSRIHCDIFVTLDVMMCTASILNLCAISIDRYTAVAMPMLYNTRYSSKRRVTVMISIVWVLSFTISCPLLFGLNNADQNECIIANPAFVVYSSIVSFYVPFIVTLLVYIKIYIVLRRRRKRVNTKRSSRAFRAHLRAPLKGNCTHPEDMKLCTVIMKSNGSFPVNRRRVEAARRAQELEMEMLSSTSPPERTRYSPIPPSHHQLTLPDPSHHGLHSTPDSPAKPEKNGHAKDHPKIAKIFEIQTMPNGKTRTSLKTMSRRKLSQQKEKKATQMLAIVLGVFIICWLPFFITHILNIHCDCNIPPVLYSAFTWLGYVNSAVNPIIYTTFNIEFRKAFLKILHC

SMILES | IC50 [2] | IC50 [4] | IC50 (D(2) dopamine receptor) | IC50 (Histamine H1 receptor) | IC50 [5] | pD2 (Oryctolagus cuniculus) | Ki [8] | Ki [10] | other results
Cc1ccccc1N1CCN(C(=O)COc2ccc3[nH]cc(CCN)c3c2)CC1 | > 10000 nM | > 10000 nM | > 10000 nM | > 10000 nM | > 10000 nM | – | – | – | IC50 [1]: > 10000 nM; IC50 [3]: > 10000 nM; IC50 [6]: > 10000 nM
CNS(=O)(=O)Cc1ccc2[nH]cc(CCN(C)C)c2c1 | – | – | – | – | – | 5.75 | – | – | –
NCCc1c[nH]c2ccc(OCC(=O)N3CCN(c4cccc5ccccc45)CC3)cc12 | > 1000 nM | > 1000 nM | > 1000 nM | > 1000 nM | > 1000 nM | – | 8.9 nM | 0.95 nM | EC50 [7]: 95 nM; IC50 [9]: > 1000 nM; IC50 [11]: > 1000 nM; IC50 [12]: > 1000 nM
COc1cccc(N2CCN(C(=O)COc3ccc4[nH]cc(CCN)c4c3)CC2)c1 | – | – | – | – | – | – | 9.8 nM | 2 nM | EC50 [13]: 85 nM
NCCc1c[nH]c2ccc(OCC(=O)NCC(=O)N[C@@H](Cc3ccc(O)cc3)C(N)=O)cc12 | – | – | – | – | – | – | – | – | IC50 [14]: 60 nM
NCCc1c[nH]c2ccc(OCC(=O)N3CCN(c4ccccc4)CC3)cc12 | – | – | – | – | – | 7.36 | – | – | –

— ChEMBL document CHEMBL1128860, “5-O-Carboxymethyl piperazide derivatives of serotonin: a new class of potent and selective 5-HT1D receptor agonists” (Bioorg Med Chem Lett, 1995)
